Laboratory results from US9695155B2, “Herbicidal substituted pyrimidinyloxy benzene compounds” (E. I. DU PONT DE NEMOURS AND COMPANY, priority 2013, dated 2017).

How the values were obtained:
velvetleaf = experiment: Test E preemergence; type: in vivo, Abutilon theophrasti; conditions: for Velvetleaf plant response rating: scale 0 to 100 (0 no effect, 100 complete control); for Plant response rating, Velvetleaf: 125 g ai/ha, scale 0 to 100, 0 no effect, 100 complete control
In short: (§1)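 Response was scored visually on a 0-100 scale (100 = complete control) versus controls after 14 to 21 days in the greenhouse. Test chemicals, formulated with surfactant in a non-phytotoxic solvent mixture, had been applied preemergence to seeds in silt loam soil or postemergence to 1- to 4-leaf plants in potting medium.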

field bindweed = experiment: Test E preemergence; type: in vivo, Convolvulus arvensis; conditions: for Field Bindweed plant response rating: scale 0 to 100 (0 no effect, 100 complete control); for Plant response rating, Field Bindweed: 125 g ai/ha, scale 0 to 100, 0 no effect, 100 complete control
In short: as §1

corn = experiment: Test E preemergence; type: in vivo, Zea mays; conditions: for Corn plant response rating: scale 0 to 100 (0 no effect, 100 complete control); for Plant response rating, Corn: 125 g ai/ha, scale 0 to 100, 0 no effect, 100 complete control
In short: as §1

fall panicum = experiment: Test E preemergence; type: in vivo, Panicum dichotomiflorum; conditions: for Panicum, Fall plant response rating: scale 0 to 100 (0 no effect, 100 complete control); for Plant response rating, Panicum, Fall: 125 g ai/ha, scale 0 to 100, 0 no effect, 100 complete control
In short: as §1

kochia = experiment: Test A preemergence; type: in vivo, Kochia scoparia; conditions: for Kochia plant response rating: 500 g ai/ha
In short: (§2)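 Compounds in non-phytotoxic solvent with surfactant applied as soil spray preemergence, or postemergence to plants 2-10 cm at one- to two-leaf stage, in loam/sand. After approximately 10 days in greenhouse, injury rated visually versus untreated controls, 0 (no effect) to 100 (complete control).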

nightshade = experiment: Test E preemergence; type: in vivo, Solanum ptycanthum; conditions: for Nightshade plant response rating: scale 0 to 100 (0 no effect, 100 complete control); for Plant response rating, Nightshade: 125 g ai/ha, scale 0 to 100, 0 no effect, 100 complete control
In short: as §1

soybean = experiment: Test E preemergence; type: in vivo, Glycine max; conditions: for Soybean plant response rating: scale 0 to 100 (0 no effect, 100 complete control); for Plant response rating, Soybean: 125 g ai/ha, scale 0 to 100, 0 no effect, 100 complete control
In short: as §1

barnyardgrass = experiment: Test E preemergence; type: in vivo, Echinochloa crus-galli; conditions: for Barnyardgrass plant response rating: scale 0 to 100 (0 no effect, 100 complete control); for Plant response rating, Barnyardgrass: scale 0 to 100, 0 no effect, 100 complete control
In short: as §1

giant foxtail = experiment: Test E preemergence; type: in vivo, Setaria faberii; conditions: for Foxtail, Giant plant response rating: scale 0 to 100 (0 no effect, 100 complete control); for Plant response rating, Foxtail, Giant: 125 g ai/ha, scale 0 to 100, 0 no effect, 100 complete control
In short: as §1

ragweed = experiment: Test A postemergence; type: in vivo, Ambrosia elatior
In short: as §2

waterhemp = experiment: Test E preemergence; type: in vivo, Amaranthus rudis; conditions: for Waterhemp plant response rating: scale 0 to 100 (0 no effect, 100 complete control); for Plant response rating, Waterhemp: 125 g ai/ha, scale 0 to 100, 0 no effect, 100 complete control
In short: as §1

galium = experiment: Test A postemergence; type: in vivo, Galium aparine
In short: as §2

large (Lg) crabgrass = experiment: Test E preemergence; type: in vivo, Digitaria sanguinalis; conditions: for Crabgrass, Large plant response rating: scale 0 to 100 (0 no effect, 100 complete control); for Plant response rating, Crabgrass, Large: 125 g ai/ha, scale 0 to 100, 0 no effect, 100 complete control
In short: as §1

[1] = 125 g ai/ha, 0 to 100 scale where 0 is no effect and 100 is complete control
[2] = 500 g ai/ha, 0 to 100 scale where 0 is no effect and 100 is complete control
[3] = 31 g ai/ha, 0 to 100 scale, 0 no effect, 100 complete control

N#Cc1cccc(Oc2ncc(Br)cn2)c1-n1cc(I)cn1 [Compound 88]
65: Plant response rating, Velvetleaf (velvetleaf) | Crabgrass, Large plant response rating (large (Lg) crabgrass; 62 g ai/ha)
50: Plant response rating, Field Bindweed (field bindweed)
35: Corn plant response rating (corn; 62 g ai/ha) | Plant response rating, Corn (corn) | Soybean plant response rating (soybean; 16 g ai/ha) | Waterhemp plant response rating (waterhemp; 31 g ai/ha) | Waterhemp plant response rating (waterhemp; 62 g ai/ha) | Crabgrass, Large plant response rating (large (Lg) crabgrass; 31 g ai/ha)
20: Velvetleaf plant response rating (velvetleaf; 62 g ai/ha) | Soybean plant response rating (soybean; 62 g ai/ha) | Plant response rating, Soybean (soybean) | Waterhemp plant response rating (waterhemp; 16 g ai/ha)
0: Velvetleaf plant response rating (velvetleaf; 16 g ai/ha) | Velvetleaf plant response rating (velvetleaf; 31 g ai/ha) | Field Bindweed plant response rating (field bindweed; 16 g ai/ha) | Field Bindweed plant response rating (field bindweed; 31 g ai/ha) | Field Bindweed plant response rating (field bindweed; 62 g ai/ha) | Corn plant response rating (corn; 16 g ai/ha) | Corn plant response rating (corn; 31 g ai/ha) | Panicum, Fall plant response rating (fall panicum; 16 g ai/ha) | Panicum, Fall plant response rating (fall panicum; 31 g ai/ha) | Panicum, Fall plant response rating (fall panicum; 62 g ai/ha) | Nightshade plant response rating (nightshade; 31 g ai/ha) | Plant response rating, Nightshade (nightshade) | Soybean plant response rating (soybean; 31 g ai/ha) | Barnyardgrass plant response rating (barnyardgrass; 16 g ai/ha, preemergence) | Barnyardgrass plant response rating (barnyardgrass; 31 g ai/ha, preemergence) | Plant response rating, Barnyardgrass (barnyardgrass; Preemergence, 62 g ai/ha) | Plant response rating, Barnyardgrass (barnyardgrass; preemergence, 125 g ai/ha) | Foxtail, Giant plant response rating (giant foxtail; 16 g ai/ha) | Foxtail, Giant plant response rating (giant foxtail; 31 g ai/ha) | Foxtail, Giant plant response rating (giant foxtail; 62 g ai/ha) | Crabgrass, Large plant response rating (large (Lg) crabgrass; 16 g ai/ha)
30: Plant response rating, Ragweed (ragweed; [2])
95: Plant response rating, Crabgrass, Large (large (Lg) crabgrass)
10: Plant response rating, Panicum, Fall (fall panicum) | Plant response rating, Ragweed (ragweed; [1])
25: Plant response rating, Foxtail, Giant (giant foxtail)
100: Plant response rating, Kochia (kochia; [1]) | Kochia plant response rating (kochia; 0 to 100 scale, 0 no effect, 100 complete control, approx. 10 days) | Plant response rating, Waterhemp (waterhemp) | Plant response rating, Galium (galium; [1]) | Plant response rating, Galium (galium; [2])

FC(F)(F)COc1cnn(-c2ccccc2Oc2ncc(Cl)cn2)c1 [Compound 138, 5-chloro-2-[2-[4-(2,2,2-trifluoroethoxy)-1H-pyrazol-1-yl]phenoxy]pyrimidine]
35: Plant response rating, Corn (corn) | Plant response rating, Soybean (soybean)
50: Plant response rating, Field Bindweed (field bindweed)
20: Field Bindweed plant response rating (field bindweed; 31 g ai/ha)
70: Velvetleaf plant response rating (velvetleaf; 31 g ai/ha) | Crabgrass, Large plant response rating (large (Lg) crabgrass; 31 g ai/ha)
0: Field Bindweed plant response rating (field bindweed; 16 g ai/ha) | Corn plant response rating (corn; 16 g ai/ha) | Corn plant response rating (corn; 31 g ai/ha) | Panicum, Fall plant response rating (fall panicum; 16 g ai/ha) | Nightshade plant response rating (nightshade; 16 g ai/ha) | Nightshade plant response rating (nightshade; 31 g ai/ha) | Soybean plant response rating (soybean; 16 g ai/ha) | Soybean plant response rating (soybean; 31 g ai/ha) | Barnyardgrass plant response rating (barnyardgrass; 16 g ai/ha, preemergence) | Barnyardgrass plant response rating (barnyardgrass; 31 g ai/ha, preemergence) | Foxtail, Giant plant response rating (giant foxtail; 16 g ai/ha) | Foxtail, Giant plant response rating (giant foxtail; 31 g ai/ha) | Waterhemp plant response rating (waterhemp; 16 g ai/ha) | Crabgrass, Large plant response rating (large (Lg) crabgrass; 16 g ai/ha)
100: Plant response rating, Velvetleaf (velvetleaf) | Panicum, Fall plant response rating (fall panicum; 62 g ai/ha) | Plant response rating, Panicum, Fall (fall panicum) | Kochia plant response rating (kochia; 0 to 100 scale where 0 is no effect and 100 is complete control) | Waterhemp plant response rating (waterhemp; 31 g ai/ha) | Plant response rating, Waterhemp (waterhemp) | Plant response rating, Galium (galium; [2]) | Plant response rating, Crabgrass, Large (large (Lg) crabgrass)
90: Velvetleaf plant response rating (velvetleaf; 62 g ai/ha) | Plant response rating, Kochia (kochia; [1]) | Plant response rating, Nightshade (nightshade) | Waterhemp plant response rating (waterhemp; 62 g ai/ha) | Galium plant response rating (galium; [1])
30: Foxtail, Giant plant response rating (giant foxtail; 62 g ai/ha) | Ragweed plant response rating (ragweed; [1])
40: Velvetleaf plant response rating (velvetleaf; 16 g ai/ha) | Field Bindweed plant response rating (field bindweed; 62 g ai/ha)
25: Panicum, Fall plant response rating (fall panicum; 31 g ai/ha)
98: Nightshade plant response rating (nightshade; 62 g ai/ha) | Crabgrass, Large plant response rating (large (Lg) crabgrass; 62 g ai/ha)
60: Plant response rating, Barnyardgrass (barnyardgrass; preemergence, 125 g ai/ha) | Plant response rating, Ragweed (ragweed; [2])
15: Corn plant response rating (corn; 62 g ai/ha) | Barnyardgrass plant response rating (barnyardgrass; 62 g ai/ha, preemergence)
75: Plant response rating, Foxtail, Giant (giant foxtail)

N#Cc1cnn(-c2c(CF)cccc2Oc2ncc(F)cn2)c1 [Compound 151]
5: Crabgrass, Large plant response rating (large (Lg) crabgrass; 31 g ai/ha)
98: Plant response rating, Panicum, Fall (fall panicum) | Waterhemp plant response rating (waterhemp; 62 g ai/ha)
35: Plant response rating, Field Bindweed (field bindweed)
20: Field Bindweed plant response rating (field bindweed; 62 g ai/ha) | Barnyardgrass plant response rating (barnyardgrass; 31 g ai/ha, preemergence)
50: Plant response rating, Ragweed (ragweed; [3])
100: Velvetleaf plant response rating (velvetleaf; 62 g ai/ha) | Plant response rating, Velvetleaf (velvetleaf) | Panicum, Fall plant response rating (fall panicum; 62 g ai/ha) | Ragweed plant response rating (ragweed; [1]) | Plant response rating, Waterhemp (waterhemp) | Plant response rating, Crabgrass, Large (large (Lg) crabgrass)
90: Plant response rating, Kochia (kochia; [1]) | Plant response rating, Nightshade (nightshade)
75: Nightshade plant response rating (nightshade; 62 g ai/ha) | Plant response rating, Soybean (soybean) | Plant response rating, Barnyardgrass (barnyardgrass; preemergence, 125 g ai/ha) | Waterhemp plant response rating (waterhemp; 31 g ai/ha)
40: Galium plant response rating (galium; [1])
80: Plant response rating, Kochia (kochia; 31 g ai/ha, 0 to 100 scale where 0 is no effect and 100 is complete control, visual, approximately 10 days)
0: Field Bindweed plant response rating (field bindweed; 16 g ai/ha) | Field Bindweed plant response rating (field bindweed; 31 g ai/ha) | Corn plant response rating (corn; 16 g ai/ha) | Corn plant response rating (corn; 31 g ai/ha) | Corn plant response rating (corn; 62 g ai/ha) | Plant response rating, Corn (corn) | Barnyardgrass plant response rating (barnyardgrass; 16 g ai/ha, preemergence) | Foxtail, Giant plant response rating (giant foxtail; 16 g ai/ha) | Crabgrass, Large plant response rating (large (Lg) crabgrass; 16 g ai/ha)
30: Nightshade plant response rating (nightshade; 31 g ai/ha) | Soybean plant response rating (soybean; 31 g ai/ha)
25: Foxtail, Giant plant response rating (giant foxtail; 31 g ai/ha)
95: Velvetleaf plant response rating (velvetleaf; 31 g ai/ha) | Plant response rating, Foxtail, Giant (giant foxtail)
10: Barnyardgrass plant response rating (barnyardgrass; 62 g ai/ha, preemergence) | Plant response rating, Galium (galium; [3])
60: Panicum, Fall plant response rating (fall panicum; 31 g ai/ha) | Foxtail, Giant plant response rating (giant foxtail; 62 g ai/ha) | Crabgrass, Large plant response rating (large (Lg) crabgrass; 62 g ai/ha)
